Data: the NIST ThermoML archive (doi:10.1021/acs.jced.5b00181)
± gives the expanded uncertainty stated by the source.

Assay: xn = mol fraction of the nth substance listed
Conditions: 101 kPa, Liquid; for viscosity: Falling or rolling sphere viscometry; for speed of sound: Frequency=3 MHz, Sing-around technique in a fixed-path interferometer; for mass density: Vibrating tube method

CCCCCC[n+]1ccn(C)c1.O=S(=O)([N-]S(=O)(=O)C(F)(F)F)C(F)(F)F + CCCO
Conditions | mass density [kg/m3] | speed of sound [m/s] | viscosity [mPa·s]
278.15 K, x1 = 0.048 | 920.02 ± 2.1 | 1255.6 ± 0.84 | 4.973 ± 0.079
278.15 K, x1 = 0.0991 | 1003.18 ± 2.1 | 1246.2 ± 0.84 | 7.263 ± 0.091
278.15 K, x1 = 0.1928 | 1109.95 ± 2 | 1243.7 ± 0.87 | 13.14 ± 0.44
278.15 K, x1 = 0.2895 | 1184.1 ± 2 | 1246.9 ± 0.91 | 20.71 ± 0.46
278.15 K, x1 = 0.3911 | 1239.44 ± 2 | 1252 ± 0.95 | 30.93 ± 0.49
278.15 K, x1 = 0.4877 | 1278.76 ± 2 | 1256.3 ± 0.98 | 44.03 ± 0.56
278.15 K, x1 = 0.6028 | 1314.62 ± 2 | 1261.3 ± 1 | 63.47 ± 2
278.15 K, x1 = 0.6999 | 1338.53 ± 2 | 1265.1 ± 1.1 | 87.45 ± 2.5
278.15 K, x1 = 0.8016 | 1359.18 ± 2 | 1268.5 ± 1.1 | 117.11 ± 3.7
278.15 K, x1 = 0.8999 | 1375.88 ± 2.1 | 1271.5 ± 1.1 | 155.87 ± 6
298.15 K, x1 = 0.048 | 903.08 ± 2.1 | 1191.5 ± 0.82 | 2.872 ± 0.072
298.15 K, x1 = 0.0991 | 985.65 ± 2.1 | 1186 ± 0.83 | 3.917 ± 0.075
298.15 K, x1 = 0.1928 | 1091.69 ± 2 | 1187.7 ± 0.86 | 6.538 ± 0.086
298.15 K, x1 = 0.2895 | 1165.51 ± 2 | 1193.5 ± 0.89 | 9.707 ± 0.1
298.15 K, x1 = 0.3911 | 1220.7 ± 2 | 1200.4 ± 0.93 | 13.78 ± 0.44
298.15 K, x1 = 0.4877 | 1259.96 ± 2 | 1205.8 ± 0.97 | 18.59 ± 0.45
298.15 K, x1 = 0.6028 | 1295.83 ± 2 | 1211.8 ± 1 | 25.71 ± 0.48
298.15 K, x1 = 0.6999 | 1319.79 ± 2 | 1216.2 ± 1.1 | 33.17 ± 0.51
298.15 K, x1 = 0.8016 | 1340.46 ± 2 | 1220.1 ± 1.1 | 42.83 ± 0.56
298.15 K, x1 = 0.8999 | 1357.18 ± 2 | 1223.3 ± 1.1 | 54.58 ± 1.9
318.15 K, x1 = 0.048 | 885.86 ± 2.1 | 1129.7 ± 0.79 | 1.799 ± 0.07
318.15 K, x1 = 0.0991 | 967.85 ± 2.1 | 1128.2 ± 0.81 | 2.374 ± 0.071
318.15 K, x1 = 0.1928 | 1073.33 ± 2 | 1134 ± 0.84 | 3.734 ± 0.074
318.15 K, x1 = 0.2895 | 1146.9 ± 2 | 1142.4 ± 0.88 | 5.367 ± 0.08
318.15 K, x1 = 0.3911 | 1202.04 ± 2 | 1151 ± 0.92 | 7.383 ± 0.09
318.15 K, x1 = 0.4877 | 1241.33 ± 2 | 1157.7 ± 0.96 | 9.855 ± 0.11
318.15 K, x1 = 0.6028 | 1277.27 ± 2 | 1164.8 ± 1 | 13.26 ± 0.44
318.15 K, x1 = 0.6999 | 1301.3 ± 2 | 1169.8 ± 1.1 | 16.47 ± 0.45
318.15 K, x1 = 0.8016 | 1322.04 ± 2 | 1174.3 ± 1.1 | 20.58 ± 0.46
318.15 K, x1 = 0.8999 | 1338.82 ± 2 | 1178.1 ± 1.1 | 25.19 ± 0.48
338.15 K, x1 = 0.048 | 868.04 ± 2.1 | 1069.2 ± 0.78 | 1.203 ± 0.069
338.15 K, x1 = 0.0991 | 949.6 ± 2.1 | 1071.6 ± 0.79 | 1.565 ± 0.069
338.15 K, x1 = 0.1928 | 1054.71 ± 2 | 1081.8 ± 0.83 | 2.399 ± 0.071
338.15 K, x1 = 0.2895 | 1128.21 ± 2 | 1092.8 ± 0.87 | 3.401 ± 0.073
338.15 K, x1 = 0.3911 | 1183.4 ± 2 | 1103.3 ± 0.91 | 4.568 ± 0.077
338.15 K, x1 = 0.4877 | 1222.81 ± 2 | 1111.4 ± 0.95 | 5.928 ± 0.083
338.15 K, x1 = 0.6028 | 1258.9 ± 2 | 1119.7 ± 1 | 7.803 ± 0.093
338.15 K, x1 = 0.6999 | 1283.03 ± 2 | 1125.6 ± 1 | 9.596 ± 0.11
338.15 K, x1 = 0.8016 | 1303.87 ± 2 | 1130.8 ± 1.1 | 11.71 ± 0.44
338.15 K, x1 = 0.8999 | 1320.72 ± 2 | 1135.3 ± 1.1 | 13.92 ± 0.44
